# According to patent US12071624B2, “Antisense oligonucleotide targeting ARL4C molecule, and nucleic acid drug using antisense oligonucleotide” (OSAKA UNIVERSITY, priority 2018, dated 2024):
# [AmNA] = 2',4'-bridged nucleic acid with N-methyl amide bridge (AmNA); d = 2'-deoxy (DNA)
# Assays:
# ARL4C mRNA = ARL4C mRNA amount by real-time PCR in HLE cells; format: cell-based, human; conditions: for effect of reducing the ARL4C mRNA amount at a low concentration: HLE cells transfected at 0.5 to 25 nM
# Description: (§1) HLE cells, HCT116 cells, and A549 cells were transfected with 25 to 50 nM ASO and 10 to 20 nM siRNA using Lipofectamine 3000 (Invitrogen, Carlsbad, CA, USA) or RNAiMAX (Invitrogen). Transfected cells were used in the experiments 36 to 48 hours after the end of the transfection.
# (§2) Cell migration assays and quantitative real-time PCR analyses were performed according to the methods reported by Fujii S et al. (Oncogene 2015; 34: 4834-44).
# HLE cells and HCT116 cells were transfected with the above-described seven types of ARL4C ASOs and the control ASO at 25 nM, and the ARL4C mRNA amounts were measured by real-time PCR; the results thereof are shown in (a) of FIG. 4. […] In order to optimize the effect of these three types of ARL4C ASOs, four bases were added to each of these three types of ARL4C ASOs, whereby ASO-1312, ASO-1450, and ASO-3223 each of which consisted of 19 bases were produced. With these six types of ARL4C ASOs (ASO-1316, ASO-1312, ASO-1454, ASO-1450, ASO-3225, and ASO-3223), the knockdown effect on ARL4C was further studied.
# HLE cells were transfected with ARL4C ASOs (ASO-1316, ASO-1312, ASO-1454, ASO-1450, ASO-3225, and ASO-3223) at 25 nM each, and the ARL4C mRNA amounts were measured by real-time PCR; the results are shown in (c) of FIG. 3. In addition, HLE cells were transfected with ARL4C ASOs (ASO-1316, ASO-1312, ASO-3225, and ASO-3223) at 0.5 to 25 nM each, and the ARL4C mRNA amounts were measured by real-time PCR; the results are shown in (b) of FIG. 4.
# HLE cells were treated with 10 μM PD184161 or 10 nM CTNNB1 siRNA (siRNA against CTNNB1), and the ARL4C mRNA amount was measured by real-time PCR; the results are shown in (a) of FIG. 5. In addition, HLE cells were treated with 10 nM CTNNB1 siRNA (siRNA against CTNNB1), and the ARL4C mRNA amount was measured by real-time PCR; the results thereof are shown in (a) of FIG. 6. PD184161 is a compound that inhibits MEK without knocking down […].
# neurolysin (NLN) mRNA = experiment: Off-target gene mRNA by real-time PCR in HLE cells (NLN); format: cell-based, human; conditions: HLE cells transfected at 25 nM
# Description: (§3) Potential off-target genes in ARL4C ASO (hARL4C ASO-1316-AmNA [15-mer] (ARL4C ASO-1316) and hARL4C-3223-AmNA [19-mer] (ARL4C ASO-3223)) were identified by using database “Human Genomic plus Transcript (Human G+T)” (Build 2.7.1) as well as basic local alignment search tools (BLAST+programs) using MegaBlast algorithm.
# as §2
# (§4) Four genes of neurolysin (NLN), sapiens F-box and leucine-rich repeat protein 19 (FBXL19), keratin-associated protein 15-1 (KRTAP15-1), and sialic acid binding Ig-like lectin 6 (SIGLEC6) were identified as candidates for off-target genes of ASO-1316 and ASO-3223 by in silico analysis. HLE cells were transfected with ASO-1316 and ASO-3223 at 25 nM each, and mRNA amounts of NLN and FBXL19 were measured by real-time PCR; the results are shown in (d) of FIG. 3. […] In addition, KRTAP15-1 and SIGLEC6 were only slightly expressed in the HLE cells (data not shown).
# FBXL19 mRNA = experiment: Off-target gene mRNA by real-time PCR in HLE cells (FBXL19); format: cell-based, human; conditions: HLE cells transfected at 25 nM
# Description: as §3, §2, §4
# PIK3CD mRNA = PIK3CD mRNA amount by real-time PCR in HLE cells; format: cell-based, human; conditions: HLE cells transfected with ASO at 25 nM
# Description: as §1, §2
# HLE cells were treated with 25 μM SecinH3 (inhibitor of Arf nucleotide-binding site opener (ARNO)) or 50 μM NSC23766 (Rac inhibitor), and the amount of PIK3CD mRNA was measured by real-time PCR; the results are shown in (c) of FIG. 5.
# HLE cells were transfected with control ASO, ASO-1316, and ASO-3223 at 25 nM, and the PIK3CD mRNA amount was measured by real-time PCR; the results are shown in (g) of FIG. 5. In addition, an anti-phosphorylated AKT (pAKT S473) antibody and an anti-AKT antibody as probes were caused to act on cell lysates of HLE cells transfected with control ASO, ASO-1316, and ASO-3223; the results are shown in (h) of FIG. 5.
# HCT116/Luc cells = experiment: Metastatic tumor model, HCT116/Luc cells transplanted into spleen with liver metastasis; format: in vivo, mouse
# Description: HCT116/Luc cells (2.5×10^5 cells) were suspended in 100 μl of phosphate buffer solution (PBS), and were injected into the spleens of 8-week-old male nude mice (BALB/cAJcl-nu/nu, CLEA Japan, Inc.) under anesthesia. After 19 days had elapsed since the transplantation, ASO (50 μg/body; about 2.5 mg/kg) was subcutaneously administered twice a week. Mice were euthanized 47 days after the HCT116/Luc cell transplantation and were subjected to histological analysis.
# Tumor growth analysis was performed by recording bioluminescence images at a frequency of once a week, in the following manner: VivoGlo luciferin (30 mg/ml) was administered intraperitoneally, and 10 minutes after the administration of VivoGlo luciferin, recording was carried out using an IVIS imaging system (Xenogen Corp., Alameda, CA, USA).
# In a metastatic tumor model in which HCT116 cells were transplanted into the spleen and the tumor was caused to metastasize to the liver, influences of the subcutaneous administration of ARL4C ASO (ASO-1316 and ASO-3223) on the liver tumor was examined.
# In an experiment in the metastatic tumor model, HCT116/Luc cells were injected into the spleens (day 0), luciferase signals were detected in the livers 19 days after the injection; on and after this day, control ASO, ASO-1316, and ASO-3223 were subcutaneously administered at a frequency of twice a week. When 19, 35 and 47 days had elapsed, the fluorescence of luciferase emitted from the liver tumors was observed, and when 47 days had elapsed, fluorescence intensities of luciferase emitted from the liver tumors were quantified with software of IVIS/Kodak; the results are shown in (a) of FIG. 10. […] In addition, when 47 days had elapsed since the transplantation of HCT116/Luc cells, the tumors formed in the livers were observed, and the tumors formed in the livers were immunostained with an anti-ARL4C antibody; the results are shown in (b) of FIG. 10. The tumors formed in the livers were immunostained with an anti-Ki-67 antibody when 47 days had elapsed since the transplantation of HCT116/Luc cells; the results are shown in (c) of FIG. 10.
Substance,ARL4C mRNA amount (ARL4C mRNA; HLE cells transfected at 25 nM),effect of reducing the ARL4C mRNA amount at a low concentration (ARL4C mRNA),NLN mRNA amount (off-target) (neurolysin (NLN) mRNA),FBXL19 mRNA amount (off-target) (FBXL19 mRNA),PIK3CD mRNA amount / PIK3CD expression (PIK3CD mRNA),"growth of liver tumors (luciferase) (HCT116/Luc cells; 50 μg/body subcutaneously twice a week from day 19, until day 47)",ARL4C expression level in liver tumor (immunostaining) (HCT116/Luc cells; day 47),number of Ki-67 positive cells in liver tumor (HCT116/Luc cells; day 47),antitumor effect in the metastatic tumor model (HCT116/Luc cells; subcutaneous twice a week from day 19)
"ASO-1316: 15-mer AmNA/phosphorothioate ASO targeting ARL4C, base sequence SEQ ID NO: 1 gcatacctcaggtaa; Table 1 SEQ ID NO 13 (antisense GCATACCTCAGGTAA; AmNA and phosphorothioate modified, pattern not given here)",reduced the ARL4C mRNA amount,high effects of reducing the ARL4C mRNA amount,did not significantly affect the expression,did not significantly affect the expression,suppressing PIK3CD expression,the growth of the tumors until 47 days after the injection could be suppressed,decreased ARL4C expression levels,decreased numbers of Ki-67 positive cells,–
"ASO-3223: 19-mer ARL4C ASO of Table 1, SEQ ID NO 55 (antisense NNNGGTTACAGTATTTNNC; sugars from the 5' end [AmNA]3 d13 [AmNA]2 d1, backbone, methylation of C and the base at N not given here; further chemistry not fully specified)",–,high effects of reducing the ARL4C mRNA amount,did not significantly affect the expression,did not significantly affect the expression,suppressing PIK3CD expression,–,–,–,did not exert an antitumor effect
